Test results: paper PMC9699072 (Molecules, 2022)
Where “and” joins values, the source holds several entries; their conditions need not be identical. Equal entries are not always repeated. Structures can show the parent of a compound that is named as a salt. Where two headings read alike, the source gives them in different places.

Key:
[1] = tested on: normal human dermal fibroblast (NHDF) cultures; assay: Cytotoxicity, MTT/formazan assay; assay type: cell-based; conditions: 72 h, MTT
Experimental: Cytotoxicity of compounds was evaluated using a culture of human dermal fibroblasts, which were isolated in the Laboratory of Cell Cultures of the Institute of Medical Cell Technologies, Ekaterinburg, Russia. Cells were seeded in 96-well plates in the inoculum dose of 2 × 10^5 cells/mL and cultured for 24 h in Dulbecco’s Modified Eagle Medium (DMEM), with 1% (w/v) glutamine in the presence of 10% (v/v) fetal bovine serum and gentamicin (50 mg/L) at 37 °C, with a humidified atmosphere of 5% (v/v) CO2. Then, compounds, which were solved in DMSO, were added to the wells at the final concentrations of 0.1, 1, 10, and 100 µM. The cells were incubated with compounds for 72 h, after which cell viability was assessed using the standard MTT assay. The assay was carried out in four replicates with negative (culture medium) and positive (solution of the cytotoxic drug camptothecin at a concentration of 3 mM) controls, and the solvent control (DMSO). […] The MTT staining of control cells was taken as 100%.

[2] = tested on: porcine liver CES; assay: Inhibition of CES (4-nitrophenol acetate hydrolysis); assay type: biochemical; conditions: ± SEM; for CES % inhibition at 20 μM: n = 3, 10 min incubation 25 °C; for IC50: n = 3
Text: (§1) Given the available literature data on the ability of pyrazole derivatives to inhibit acetylcholinesterase (AChE) and human carboxylesterase-1 (CES), we performed an investigation of the esterase profile for new compounds 1a–j and 4a–j, including an evaluation of their inhibitory effect on the standard enzymes set: human erythrocyte AChE, equine serum butyrylcholinesterase (BChE), and porcine liver CES (Table 2). The applicability of this set of enzymes was shown by us earlier.
(§2) Human erythrocyte acetylcholinesterase (AChE, EC 3.1.1.7), equine serum butyrylcholinesterase (BChE, EC 3.1.1.8), porcine liver carboxylesterase (CES, EC 3.1.1.1), acetylthiocholine iodide (ATCh), butyrylthiocholine iodide (BTCh), 4-nitrophenol acetate (4-NPA), and 5,5′-dithio-bis-(2-nitrobenzoic acid) (DTNB) were purchased from Sigma-Aldrich (Saint Louis, MO, USA).
(§3) All the kinetic experiments were performed under standard conditions, according to the protocol of IPAC RAS for a reversible inhibitors study.
(§4) Ellman’s colorimetric assay was used to measure AChE and BChE activity in 0.1 M K/Na phosphate buffer at pH 7.5, 25 °C [86]. Final concentrations of reactants were 0.33 mM DTNB, 0.02 unit/mL of AChE or BChE, and 1 mM of substrate (ATCh or BTCh, respectively). Reagent blanks consisted of reaction mixtures without enzyme to assess non-enzymatic hydrolysis of substrates. Porcine liver CES activity was assessed colorimetrically in 0.1 M K/Na phosphate buffer with pH 8.0 at 25 °C, by measuring the absorbance of 4-nitrophenol at 405 nm. Final enzyme and substrate (4-NPA) concentrations were 0.02 unit/mL and 1 mM, respectively. Reagent blanks included all constituents except enzyme.
(§5) Test compounds were dissolved in DMSO. Reaction mixtures contained a final DMSO concentration of 2% (v/v). Enzyme inhibition was first assessed at a single concentration of 20 µM for each compound after a 10 min incubation at 25 °C in three separate experiments. Compounds inhibiting the enzyme by more than 30% were then selected for determination of the IC50 (inhibitor concentration resulting in 50% inhibition of control enzyme activity). […] Substrate was then added, and residual enzyme activity relative to an inhibitor-free control was measured using a FLUOStar Optima microplate reader (LabTech, Ortenberg, Germany).

[3] = ORAC-FL (oxygen radical absorbance capacity) assay; assay type: biochemical; conditions: mean ± SEM, n = 3; 2 h; read-out: ORAC-FL IC50 (compound concentration required for 50% reduction of peroxyl radical) (converted)
[4] = biological target: T1, equine serum butyrylcholinesterase (BChE) (Equus caballus, UniProt P81908); assay: Inhibition of BChE (Ellman's colorimetric assay); assay type: biochemical; conditions: ± SEM, n = 3, 10 min incubation 25 °C
T1 construct: equine serum butyrylcholinesterase (BChE, EC 3.1.1.8); purchased Sigma-Aldrich (Saint Louis, MO, USA); host or cells: equine serum
Text: as §1, §2, §3, §4, §5

[5] = ABTS radical cation scavenging (decolorization) assay; assay type: biochemical; conditions: mean ± SEM, n = 3; for IC50: 1 h, read-out: ABTS IC50 (compound concentration required for 50% reduction of the ABTS radical-cation) (converted); for ABTS TEAC (Trolox equivalent antioxidant capacity): 1 h incubation, relative to Trolox
Experimental: The ABTS assay is based on the direct quenching of the ABTS cation radical (ABTS^•+) by antioxidants. The assay is carried out by spectrophotometric determination of a decrease in absorbance of a stable dark green ABTS^•+ solution after its interaction with an antioxidant compound [56]. The measurements were performed as previously described in detail. The results are expressed as TEAC values (Trolox equivalent antioxidant capacity) and IC50 values (compound concentration required for 50% reduction of the ABTS radical).
Radical scavenging activity of the compounds was assessed using the ABTS radical cation (ABTS^•+) decolorization assay with some modifications. ABTS (2,2′-azinobis-(3-ethylbenzothiazoline-6-sulfonic acid)) was purchased from Tokyo Chemical Industry Co., Ltd. (Tokyo, Japan), and potassium persulfate (dipotassium peroxodisulfate), Trolox (6-hydroxy-2,5,7,8-tetramethylchroman-2-carboxylic acid), and HPLC-grade ethanol and DMSO were obtained from Sigma-Aldrich (Saint Louis, MO, USA). Aqueous solutions were prepared using deionized water. All test compounds were dissolved in DMSO.
The solution of cation radical ABTS^•+ was produced by incubation of an aqueous solution of 7 mM ABTS and 2.45 mM potassium persulfate solution in equal quantities for 12–16 h at room temperature in the dark. Radical scavenging capacity of the compounds was analyzed by mixing 10 μL of compound with 240 μL of ABTS^•+ working solution in ethanol (100 μM final concentration). Data were given for 1 h of incubation of compounds with ABTS^•+. The reduction in absorbance was measured spectrophotometrically at 734 nm using an xMark microplate UV/VIS microplate spectrophotometer (Bio-Rad, Hercules, CA, USA).
Ethanol blanks were run in each assay. Values were obtained from three replicates of each sample and three independent experiments.
Standard antioxidant Trolox was used as a reference compound. Antioxidant capacity as Trolox equivalent (TEAC) values was determined as the ratio between the slopes obtained from the linear correlation of the ABTS radical absorbance with the concentrations of tested compounds and Trolox. Quercetin was used as a positive control. For the test compounds that reduced ABTS^•+ absorbance by more than 60% at 100 µM, we also determined the IC50 values (the compound concentration required for a 50% reduction of the ABTS radical). The compounds were tested in the concentration range of 0.5–400 µM.

[6] = biological target: T2, human erythrocyte AChE (Homo sapiens, UniProt P22303); assay: Inhibition of AChE (Ellman's colorimetric assay); assay type: biochemical; conditions: read-out: AChE % inhibition at 20 μM
T2 construct: Human erythrocyte acetylcholinesterase (AChE, EC 3.1.1.7); purchased Sigma-Aldrich (Saint Louis, MO, USA); host or cells: human erythrocytes
Text: as §1, §2, §3, §4, §5

[7] = set-up: method as in PMID 16997555; conditions: relative to EDA; cited from earlier work
[8] = 20 μM, ± SEM, n = 3, 10 min incubation 25 °C

T1 sequence (P81908 whole entry): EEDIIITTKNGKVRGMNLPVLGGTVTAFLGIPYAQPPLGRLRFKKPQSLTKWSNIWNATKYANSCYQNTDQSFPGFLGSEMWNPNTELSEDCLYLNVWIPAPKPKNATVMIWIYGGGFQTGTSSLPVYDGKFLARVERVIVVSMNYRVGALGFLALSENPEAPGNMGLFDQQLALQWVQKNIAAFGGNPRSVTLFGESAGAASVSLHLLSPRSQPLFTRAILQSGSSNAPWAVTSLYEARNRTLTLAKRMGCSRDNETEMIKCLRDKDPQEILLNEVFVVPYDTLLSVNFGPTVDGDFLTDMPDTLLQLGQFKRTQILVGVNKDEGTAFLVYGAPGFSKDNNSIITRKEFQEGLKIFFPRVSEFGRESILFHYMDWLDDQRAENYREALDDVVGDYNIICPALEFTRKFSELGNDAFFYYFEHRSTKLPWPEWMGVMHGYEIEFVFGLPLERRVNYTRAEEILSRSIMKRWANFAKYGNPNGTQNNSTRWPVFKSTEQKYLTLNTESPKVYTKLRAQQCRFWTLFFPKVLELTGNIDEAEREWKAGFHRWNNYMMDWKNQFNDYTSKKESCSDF
T2 sequence (P22303 32-617 isoform P22303-2 limits assumed): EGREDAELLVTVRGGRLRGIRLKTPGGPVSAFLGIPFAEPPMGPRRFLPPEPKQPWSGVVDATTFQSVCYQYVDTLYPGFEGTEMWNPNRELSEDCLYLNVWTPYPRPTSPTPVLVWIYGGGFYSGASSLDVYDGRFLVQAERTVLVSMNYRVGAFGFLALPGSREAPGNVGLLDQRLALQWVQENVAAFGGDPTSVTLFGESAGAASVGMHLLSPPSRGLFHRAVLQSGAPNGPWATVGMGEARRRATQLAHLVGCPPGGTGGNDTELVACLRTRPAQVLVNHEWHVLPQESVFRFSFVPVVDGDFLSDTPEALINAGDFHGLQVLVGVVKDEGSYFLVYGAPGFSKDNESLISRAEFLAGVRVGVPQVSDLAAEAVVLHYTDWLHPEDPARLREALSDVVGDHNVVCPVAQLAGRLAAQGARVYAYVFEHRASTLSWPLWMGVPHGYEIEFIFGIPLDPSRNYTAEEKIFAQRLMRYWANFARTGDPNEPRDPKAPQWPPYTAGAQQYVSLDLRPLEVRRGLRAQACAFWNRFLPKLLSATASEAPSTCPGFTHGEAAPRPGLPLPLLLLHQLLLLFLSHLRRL

Compound	CES % inhibition at 20 μM [2]	IC50 [5]	ABTS TEAC (Trolox equivalent antioxidant capacity) [5]	inhibition at 20 µM [4]	IC50 [2]	inhibition at 20 µM [6]	also measured
3-methyl-1-phenyl-2-pyrazolin-5-one [EDA, reference compound]	8.4 ± 0.7%	21.4 µM	0.96 ± 0.04 TEAC	–	–	–	Inhibitory Capability (IC, %) on NHDF ([1]; 1 µM): 3.74 ± 0.05%; Inhibitory Capability (IC, %) on NHDF ([1]; 10 µM): 19.9 ± 0.8%; Inhibitory Capability (IC, %) on NHDF ([1]; 100 µM): 32.8 ± 0.6%; IC50 [3]: 5.6 µM; BChE % inhibition at 20 μM [4]: 4.6 ± 0.2%
O=C1NN=C(C(F)(F)F)/C1=N/O [1e]	5.9 ± 1.1%	–	0.23 ± 0.01 (n.d.) TEAC	–	–	–	–
O=C1NN=C(C(F)(F)C(F)(F)F)/C1=N/O [1g]	7.8 ± 1.4%	–	0.13 ± 0.04 (n.d.) TEAC	–	–	–	–
CC1=NNC(=O)/C1=N\O [1j]	–	–	0.2 ± 0.03 (n.d.) TEAC	3.8 ± 1.3%	–	–	–
Cl.Nc1c(C(F)(F)F)nn(-c2ccccc2)c1O [4a, 4-Amino-3-(trifluoromethyl)-1-phenyl-1H-pyrazol-5-ol hydrochloride]	–	27.2 µM	0.75 ± 0.04 TEAC	6.9 ± 1.1%	44.9 ± 4 µM	–	inhibition at 20 µM [6, 8]: 7.9 ± 1.5%; IC50 [3]: 8.8 µM
Cl.Nc1c(C(F)(F)C(F)(F)F)nn(-c2ccccc2)c1O.O [4b, 4-Amino-3-(pentafluoroethyl)-1-phenyl-1H-pyrazol-5-ol hydrate hydrochloride]	16.6 ± 1.4%	34.1 µM	0.6 ± 0.03 TEAC	12.8 ± 1.5%	–	4.4 ± 1.1%	–
Nc1c(C(F)(F)C(F)(F)C(F)(F)C(F)(F)F)nn(-c2ccccc2)c1O [4c, 5-Hydroxy-1-phenyl-3-(nonafluorobuthyl)-1H-pyrazol-4-ammonium hydrochloride]	–	23.4 µM	0.85 ± 0.04 TEAC	10.3 ± 1.2%	10 µM and 10.2 µM	19.2 ± 1.7%	–
Cc1nn(-c2ccccc2)c(O)c1N.Cl.O [4d, 4-Amino-3-methyl-1-phenyl-1H-pyrazol-5-ol hydrochloride hydrate]	–	23.3 µM	0.93 ± 0.03 TEAC	5.1 ± 1.3%	98.7 ± 8.8 µM	6.5 ± 1.2%	Cytotoxicity against NHDF cell culture ([1]; 100 µM): neither of the compounds 4d,j showed cytotoxicity; Cytotoxicity against NHDF cell culture ([1]; 100 µM, listed as APH): not cytotoxic; IC50 [3]: 6.85 µM; ABTS TEAC (Trolox equivalent antioxidant capacity) ([5]; listed as APH): 0.93 TEAC
Cl.Nc1c(C(F)(F)F)n[nH]c1O [4e, 4-Amino-3-(trifluoromethyl)-1H-pyrazol-5-ol hydrochloride]	–	21.2 µM	0.92 ± 0.04 TEAC	5.6 ± 1.5%	–	–	inhibition at 20 µM [6, 8]: 9.7 ± 1.5%
Cl.Nc1c(C(F)(F)C(F)(F)F)n[nH]c1O.O [4g, 4-Amino-3-(pentafluoroethyl)-1H-pyrazol-5-ol hydrate hydrochloride]	6.7 ± 1.2%	25.7 µM	0.73 ± 0.03 TEAC	8.9 ± 1.4%	–	17.3 ± 1.7%	–
Cl.Nc1c(C(F)(F)C(F)(F)C(F)(F)F)n[nH]c1O.O [4h, 4-Amino-3-(heptafluoropropyl)-1H-pyrazol-5-ol hydrate hydrochloride]	–	24.8 µM	0.78 ± 0.04 TEAC	3.4 ± 0.9%	81.8 ± 7.3 µM	–	–
Cl.Nc1c(C(F)(F)C(F)(F)C(F)(F)C(F)(F)F)n[nH]c1O.O [4i, 4-Amino-3-(nonafluorobutyl)-1H-pyrazol-5-ol hydrate hydrochloride]	–	40.8 µM	0.45 ± 0.02 TEAC	–	22 µM and 21.8 µM	5.1 ± 0.9%	–
Cc1n[nH]c(O)c1N.Cl [4j, 4-Amino-3-methyl-1H-pyrazol-5-ol hydrochloride]	4.3 ± 0.9%	20.1 µM	0.95 ± 0.04 TEAC	13.9 ± 1.6%	–	–	Cytotoxicity against NHDF cell culture ([1]; 100 µM): neither of the compounds 4d,j showed cytotoxicity
Oc1cc(C(F)(F)F)nn1-c1ccccc1 [CF3-EDA, 3-trifluoromethyl-1-phenylpyrazol-5-ol, reference compound]	7.6 ± 1.2%	21.4 µM	0.95 ± 0.04 TEAC	–	–	–	IC50 [3]: 6.3 µM; Times less active compared to EDA in the OH radical binding test [7]: 3 times
